We go through four molecules from ChEMBL document CHEMBL4184334, “From Cancer to Pain Target by Automated Selectivity Inversion of a Clinical Candidate” (J Med Chem, 2018).

In one series the target is T1, Aurora kinase A (Homo sapiens, UniProt O14965).
T1 sequence (O14965 whole entry): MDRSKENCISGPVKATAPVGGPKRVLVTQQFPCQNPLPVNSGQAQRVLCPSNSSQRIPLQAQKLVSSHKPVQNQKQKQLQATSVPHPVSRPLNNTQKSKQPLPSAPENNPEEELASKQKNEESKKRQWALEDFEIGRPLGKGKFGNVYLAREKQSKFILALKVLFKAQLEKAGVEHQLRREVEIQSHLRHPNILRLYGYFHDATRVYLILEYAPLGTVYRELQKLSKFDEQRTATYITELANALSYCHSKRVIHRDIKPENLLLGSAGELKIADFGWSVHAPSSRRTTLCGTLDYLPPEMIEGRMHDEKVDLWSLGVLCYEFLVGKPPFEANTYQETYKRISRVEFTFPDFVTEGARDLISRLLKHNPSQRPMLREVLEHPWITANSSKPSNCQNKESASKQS
In words: Inhibition of DNA-tagged human partial length AURKA expressed in mammalian expression system at 100 nM by qPCR method. Conditions: 0.1 µM.

Series [1] has as its target BDNF/NT-3 growth factors receptor (Homo sapiens) (UniProt Q16620). In words: Inhibition of DNA-tagged human partial length TrkB expressed in mammalian expression system at 100 nM by qPCR method. (In general: Real-time PCR tracks product formation cycle by cycle.)
The target of series [2] is NT-3 growth factor receptor (Homo sapiens) (UniProt Q16288). In words: Inhibition of DNA-tagged human partial length TrkC expressed in mammalian expression system at 100 nM by qPCR method.
Sequence of NT-3 growth factor receptor (Homo sapiens) (Q16288 32-839 limits assumed): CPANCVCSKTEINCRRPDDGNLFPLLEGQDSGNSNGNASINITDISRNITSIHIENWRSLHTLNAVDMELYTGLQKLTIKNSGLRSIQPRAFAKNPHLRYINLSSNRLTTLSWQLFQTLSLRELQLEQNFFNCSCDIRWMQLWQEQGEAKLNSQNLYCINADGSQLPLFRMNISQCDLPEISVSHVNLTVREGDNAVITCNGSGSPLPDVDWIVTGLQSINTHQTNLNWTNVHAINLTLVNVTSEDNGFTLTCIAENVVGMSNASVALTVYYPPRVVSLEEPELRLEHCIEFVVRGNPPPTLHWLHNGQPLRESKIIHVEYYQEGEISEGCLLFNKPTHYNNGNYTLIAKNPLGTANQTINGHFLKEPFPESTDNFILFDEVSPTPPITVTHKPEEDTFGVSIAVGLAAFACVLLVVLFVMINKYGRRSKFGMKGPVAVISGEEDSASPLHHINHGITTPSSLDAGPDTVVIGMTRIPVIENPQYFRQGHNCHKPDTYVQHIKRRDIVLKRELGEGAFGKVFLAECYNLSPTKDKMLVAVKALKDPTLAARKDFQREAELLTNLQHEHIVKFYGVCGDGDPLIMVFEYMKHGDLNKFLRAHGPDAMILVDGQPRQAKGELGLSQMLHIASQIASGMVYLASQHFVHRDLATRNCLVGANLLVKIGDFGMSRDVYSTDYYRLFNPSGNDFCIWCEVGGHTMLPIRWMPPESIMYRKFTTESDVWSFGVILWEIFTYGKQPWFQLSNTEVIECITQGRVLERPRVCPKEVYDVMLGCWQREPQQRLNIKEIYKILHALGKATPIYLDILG
In series [3] the target is Platelet-derived growth factor receptor beta (Homo sapiens) (UniProt P09619). Description: Inhibition of DNA-tagged human partial length PDGFRB expressed in mammalian expression system at 100 nM by qPCR method.
Sequence of Platelet-derived growth factor receptor beta (Homo sapiens) (P09619 whole entry): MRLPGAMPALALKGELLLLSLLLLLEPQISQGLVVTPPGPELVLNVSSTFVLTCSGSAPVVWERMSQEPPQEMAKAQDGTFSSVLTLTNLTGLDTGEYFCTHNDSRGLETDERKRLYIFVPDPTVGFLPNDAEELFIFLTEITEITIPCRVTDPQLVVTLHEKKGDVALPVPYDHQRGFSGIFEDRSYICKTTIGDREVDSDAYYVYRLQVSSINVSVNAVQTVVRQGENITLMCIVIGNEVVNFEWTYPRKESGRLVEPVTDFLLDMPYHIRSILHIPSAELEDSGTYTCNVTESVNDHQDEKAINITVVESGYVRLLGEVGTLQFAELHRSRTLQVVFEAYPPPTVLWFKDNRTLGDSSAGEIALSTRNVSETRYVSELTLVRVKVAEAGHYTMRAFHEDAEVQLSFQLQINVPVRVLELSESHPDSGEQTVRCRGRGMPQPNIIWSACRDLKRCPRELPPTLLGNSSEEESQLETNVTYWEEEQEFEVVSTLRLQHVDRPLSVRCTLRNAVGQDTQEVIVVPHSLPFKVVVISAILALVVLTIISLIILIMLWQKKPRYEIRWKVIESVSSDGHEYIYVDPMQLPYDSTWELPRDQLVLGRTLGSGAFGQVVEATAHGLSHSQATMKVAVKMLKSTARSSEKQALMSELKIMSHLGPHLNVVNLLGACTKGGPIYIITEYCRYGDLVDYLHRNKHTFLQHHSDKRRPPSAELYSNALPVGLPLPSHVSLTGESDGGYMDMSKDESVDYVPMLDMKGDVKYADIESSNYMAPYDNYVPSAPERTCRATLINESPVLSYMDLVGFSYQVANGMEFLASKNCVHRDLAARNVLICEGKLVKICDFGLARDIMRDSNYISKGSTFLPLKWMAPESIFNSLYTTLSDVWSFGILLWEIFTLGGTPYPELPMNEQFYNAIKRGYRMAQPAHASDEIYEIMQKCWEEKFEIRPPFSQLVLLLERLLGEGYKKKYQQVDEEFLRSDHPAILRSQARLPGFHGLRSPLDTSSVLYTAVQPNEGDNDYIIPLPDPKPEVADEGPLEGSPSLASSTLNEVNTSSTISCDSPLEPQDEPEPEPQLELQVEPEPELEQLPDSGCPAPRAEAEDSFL
For series [4], the target named is Proto-oncogene tyrosine-protein kinase receptor Ret (Homo sapiens) (UniProt P07949). In words: Inhibition of DNA-tagged human partial length RET expressed in bacterial expression system at 100 nM by qPCR method.
Sequence of Proto-oncogene tyrosine-protein kinase receptor Ret (Homo sapiens) (P07949 whole entry): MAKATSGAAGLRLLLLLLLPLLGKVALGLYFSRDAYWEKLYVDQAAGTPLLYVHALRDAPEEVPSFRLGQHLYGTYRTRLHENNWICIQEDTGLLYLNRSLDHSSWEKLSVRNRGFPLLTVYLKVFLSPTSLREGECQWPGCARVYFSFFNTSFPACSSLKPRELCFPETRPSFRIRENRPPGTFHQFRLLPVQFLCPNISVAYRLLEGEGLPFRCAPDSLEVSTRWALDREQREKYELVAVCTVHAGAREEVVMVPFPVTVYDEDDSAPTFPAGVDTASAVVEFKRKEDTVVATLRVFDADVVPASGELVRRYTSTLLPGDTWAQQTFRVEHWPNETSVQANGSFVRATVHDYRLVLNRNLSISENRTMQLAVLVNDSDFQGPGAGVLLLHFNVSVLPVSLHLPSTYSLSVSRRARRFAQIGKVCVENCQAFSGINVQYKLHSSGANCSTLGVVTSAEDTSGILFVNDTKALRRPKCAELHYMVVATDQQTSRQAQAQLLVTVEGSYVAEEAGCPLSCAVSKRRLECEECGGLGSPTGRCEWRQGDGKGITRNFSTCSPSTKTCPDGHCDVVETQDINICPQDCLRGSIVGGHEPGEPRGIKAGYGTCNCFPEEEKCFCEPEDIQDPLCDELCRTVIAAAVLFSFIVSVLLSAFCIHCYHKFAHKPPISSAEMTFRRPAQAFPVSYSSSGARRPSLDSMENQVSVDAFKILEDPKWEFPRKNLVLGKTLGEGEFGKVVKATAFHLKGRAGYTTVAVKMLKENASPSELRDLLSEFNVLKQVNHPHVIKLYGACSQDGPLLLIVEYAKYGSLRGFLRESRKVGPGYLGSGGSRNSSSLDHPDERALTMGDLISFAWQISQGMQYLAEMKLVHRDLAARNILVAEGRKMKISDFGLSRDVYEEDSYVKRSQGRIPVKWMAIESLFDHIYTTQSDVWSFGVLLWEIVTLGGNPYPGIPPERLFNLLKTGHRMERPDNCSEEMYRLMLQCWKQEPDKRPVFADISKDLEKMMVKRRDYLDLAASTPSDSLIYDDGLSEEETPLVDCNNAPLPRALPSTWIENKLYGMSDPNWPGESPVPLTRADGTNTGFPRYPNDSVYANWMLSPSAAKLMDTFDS
For series [5], the target named is Tyrosine-protein kinase ABL1 (Homo sapiens, UniProt P00519). Description: Inhibition of DNA-tagged human nonphosphorylated partial length ABL1 expressed in mammalian expression system at 100 nM by qPCR method. Conditions: 0.1 µM.
The target of series [6] is High affinity nerve growth factor receptor (Homo sapiens) (UniProt P04629). Description: Inhibition of DNA-tagged human partial length TrkA expressed in mammalian expression system assessed as remaining activity at 100 nM by qPCR method.
Sequence of High affinity nerve growth factor receptor (Homo sapiens) (P04629 33-796 limits assumed): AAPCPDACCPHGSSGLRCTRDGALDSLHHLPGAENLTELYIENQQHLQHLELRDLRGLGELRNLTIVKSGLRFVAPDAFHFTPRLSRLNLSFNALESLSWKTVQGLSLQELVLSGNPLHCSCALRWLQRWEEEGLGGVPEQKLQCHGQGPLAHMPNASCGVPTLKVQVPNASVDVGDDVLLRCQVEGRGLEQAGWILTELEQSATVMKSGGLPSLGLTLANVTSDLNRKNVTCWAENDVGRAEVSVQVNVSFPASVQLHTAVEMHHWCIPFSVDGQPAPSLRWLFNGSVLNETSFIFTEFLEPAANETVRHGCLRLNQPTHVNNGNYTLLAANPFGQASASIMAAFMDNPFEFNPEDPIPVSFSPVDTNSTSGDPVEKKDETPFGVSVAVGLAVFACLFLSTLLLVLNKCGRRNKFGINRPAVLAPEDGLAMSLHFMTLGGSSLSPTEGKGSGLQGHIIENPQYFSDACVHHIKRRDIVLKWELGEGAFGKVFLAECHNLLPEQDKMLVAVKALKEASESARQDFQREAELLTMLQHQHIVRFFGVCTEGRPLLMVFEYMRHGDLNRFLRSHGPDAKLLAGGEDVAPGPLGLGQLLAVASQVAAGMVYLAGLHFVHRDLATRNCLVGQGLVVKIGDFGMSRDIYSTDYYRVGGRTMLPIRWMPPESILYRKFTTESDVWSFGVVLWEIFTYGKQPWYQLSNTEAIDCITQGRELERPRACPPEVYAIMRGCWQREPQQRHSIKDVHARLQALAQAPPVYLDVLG
The target of series [7] is T2, Tyrosine-protein kinase JAK3 (Homo sapiens) (UniProt P52333).
T2 sequence (whole entry): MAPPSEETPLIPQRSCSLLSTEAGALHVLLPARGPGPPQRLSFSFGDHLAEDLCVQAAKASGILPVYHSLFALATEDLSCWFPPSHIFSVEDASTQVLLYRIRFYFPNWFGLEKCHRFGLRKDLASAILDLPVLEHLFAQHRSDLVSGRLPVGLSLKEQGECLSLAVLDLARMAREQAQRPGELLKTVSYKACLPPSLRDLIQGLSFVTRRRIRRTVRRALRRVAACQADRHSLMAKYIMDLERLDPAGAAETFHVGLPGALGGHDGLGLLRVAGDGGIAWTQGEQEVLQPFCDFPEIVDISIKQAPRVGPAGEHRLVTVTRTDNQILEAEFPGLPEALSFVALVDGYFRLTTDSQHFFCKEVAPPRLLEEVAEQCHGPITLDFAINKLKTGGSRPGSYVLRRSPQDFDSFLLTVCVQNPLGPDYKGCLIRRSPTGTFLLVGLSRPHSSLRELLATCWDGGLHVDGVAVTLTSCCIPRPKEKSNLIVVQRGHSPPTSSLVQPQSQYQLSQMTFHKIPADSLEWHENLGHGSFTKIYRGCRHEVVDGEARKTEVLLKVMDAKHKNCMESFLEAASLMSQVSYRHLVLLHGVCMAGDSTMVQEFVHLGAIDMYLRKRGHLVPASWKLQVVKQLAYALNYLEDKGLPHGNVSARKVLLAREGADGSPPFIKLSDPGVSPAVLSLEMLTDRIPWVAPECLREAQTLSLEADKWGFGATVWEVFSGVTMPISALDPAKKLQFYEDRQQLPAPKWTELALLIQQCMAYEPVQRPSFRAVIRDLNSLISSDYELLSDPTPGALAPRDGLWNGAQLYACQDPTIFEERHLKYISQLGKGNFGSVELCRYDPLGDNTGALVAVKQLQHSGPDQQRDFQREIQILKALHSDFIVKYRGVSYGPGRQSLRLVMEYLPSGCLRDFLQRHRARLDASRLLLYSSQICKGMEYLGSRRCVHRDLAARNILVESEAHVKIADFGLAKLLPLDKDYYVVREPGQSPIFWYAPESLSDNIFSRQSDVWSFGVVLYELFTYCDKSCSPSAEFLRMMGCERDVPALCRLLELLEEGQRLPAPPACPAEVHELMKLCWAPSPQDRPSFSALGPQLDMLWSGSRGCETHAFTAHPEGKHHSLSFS
Description: Inhibition of DNA-tagged human partial length JAK3 JH1 domain-catalytic expressed in mammalian expression system at 100 nM by qPCR method.

Series [8] has as its target Mast/stem cell growth factor receptor Kit (Homo sapiens) (UniProt P10721). Description: Inhibition of DNA-tagged human partial length KIT expressed in bacterial expression system at 100 nM by qPCR method.
For series [9], the target named is Tyrosine-protein kinase JAK2 (Homo sapiens, UniProt O60674). In words: Inhibition of DNA-tagged human partial length JAK2 JH1 domain-catalytic expressed in mammalian expression system at 100 nM by qPCR method. Particulars: 0.1 µM.
Series [10] has as its target Tyrosine-protein kinase ABL1 (Homo sapiens, UniProt P00519, T315I). In words: Inhibition of DNA-tagged human phosphorylated partial length ABL1 T315I mutant expressed in mammalian expression system at 100 nM by qPCR method. Conditions: 0.1 µM.
Another series is filed under the species Homo sapiens. In words: Selectivity ratio of Kd for DNA-tagged human partial length AURKA to Kd for DNA-tagged human partial length TrkA.

Active and inactive are the calls of the source. The calls are words filed in the database; no cut-off is given here.

Sequence of BDNF/NT-3 growth factors receptor (Homo sapiens) (Q16620 32-822 limits assumed): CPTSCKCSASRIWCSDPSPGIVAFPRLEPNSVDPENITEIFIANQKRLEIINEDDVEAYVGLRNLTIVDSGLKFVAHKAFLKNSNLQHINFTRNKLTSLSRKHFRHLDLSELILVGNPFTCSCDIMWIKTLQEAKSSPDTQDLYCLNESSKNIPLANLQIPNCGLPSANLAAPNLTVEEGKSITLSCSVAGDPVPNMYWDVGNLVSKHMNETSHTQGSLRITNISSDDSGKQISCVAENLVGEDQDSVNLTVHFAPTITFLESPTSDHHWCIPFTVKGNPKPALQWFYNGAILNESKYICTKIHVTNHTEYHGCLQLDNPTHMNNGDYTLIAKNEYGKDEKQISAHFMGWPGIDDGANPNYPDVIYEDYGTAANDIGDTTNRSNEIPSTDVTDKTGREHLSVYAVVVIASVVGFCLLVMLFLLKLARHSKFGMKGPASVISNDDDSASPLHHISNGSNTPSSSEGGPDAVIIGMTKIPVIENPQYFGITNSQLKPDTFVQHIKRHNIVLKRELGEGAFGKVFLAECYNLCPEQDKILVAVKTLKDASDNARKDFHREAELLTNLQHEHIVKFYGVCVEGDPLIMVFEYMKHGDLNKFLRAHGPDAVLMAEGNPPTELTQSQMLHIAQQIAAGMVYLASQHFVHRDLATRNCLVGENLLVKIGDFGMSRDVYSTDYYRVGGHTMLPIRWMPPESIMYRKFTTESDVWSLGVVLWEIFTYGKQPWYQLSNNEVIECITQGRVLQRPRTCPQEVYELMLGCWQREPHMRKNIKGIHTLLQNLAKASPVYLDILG

Consider `CN1CCN(c2cc(Nc3cc(C(C)(C)C)[nH]n3)nc(Sc3ccccc3)n2)CC1`, for which the “inhibition (INH)” value against Aurora kinase A is recorded as “Not Active”.
For the molecule `Cc1ccc(CSc2nc(Nc3cc(C)[nH]n3)cc(N3CCN(C)CC3)n2)cc1`, the inhibition entry in [1], in series [2] and in series [3] was “inactive” throughout.
On to `CN1CCN(c2cc(Nc3cc(-c4cccc(F)c4)[nH]n3)nc(Sc3ccccc3)n2)CC1`, for which the inhibition entry in series [4], in [1], in series [8], in [2] and in [3] was “Active” each time. In addition, the “inhibition (INH)” value in series [5], in [9] and in series [10] was “Not Active” throughout. Also, the Activity in series [6] was < 1%. Further, in series [7], the inhibition result was “inactive”. Besides, the Selectivity ratio in the series filed under Homo sapiens was 1000.
Regarding `Cc1cc(Nc2cc(N3CCN(C)CC3)nc(Sc3ccc(NC(=O)C4CC4)cc3)n2)n[nH]1`, the inhibition result in [4] was “Active”.
